Earlier results on two compounds are cited in patent publication US8133908B2, “Heteroaryl derivatives of N-{[(1S,4S,6S)-3-(2-pyridinylcarbonyl)-3-azabicyclo[4.1.0]hept-4-yl]methyl}-2-amine” (Glaxo Group Limited, priority 2008, dated 2012).

No end group written: not given here.

For data set [1], the system named is orexin receptor. The note with it: rats.
The subject of data set [2] is orexin receptors. The note with it: rats, central administration at the onset of the normal sleep period.
For data set [3], the system named is orexin-A receptor(s). The note with it: central administration, freely-feeding rats, 4 hour time period.

Turning to `Cc1nc2ccc(NC(=O)Nc3ccnc4cccnc34)cc2o1` [SB334867], in data set [1], the hedonic eating result is listed as “potently reduced” and the high-fat pellet self-administration result is reported as “attenuated”.

As for “orexin-A: ligand for the orexin-1 receptor; an agonist of the orexin receptors (QPLPDCCRQKTCSCRLYELLHGAGNHAAGILTL; ends and bridges not checked; cysteine pairing not given here; UniProt O43612 34-66, looked up)”, in data set [2], the arousal entry is “dose-related increase in arousal”. Moreover, in data set [3], the “increase of food intake over control rats receiving vehicle” value is given as “approximately four-fold”.
